Data reported in patent publication US20160243271A1, “Essential Oils Or Volatile Organics Thereof Electrospun In Chitosan Nanofiber Mats” (UNIVERSITY OF MASSACHUSETTS, priority 2013, published 2016).
≈ marks a conversion by molar mass, not a printed value.

How the values were obtained:
[1] = system: P. aeruginosa S20930; test: Viability loss of P. aeruginosa, PI/DAPI fluorescence assay; assay type: cell-based, Pseudomonas aeruginosa
Description: (§1) The model organisms were Escherichia coli S20918 (E. coli) and P. aeruginosa S20930 (P. aeruginosa), purchased from Thermo Fisher Scientific, Waltham, Mass. The bacteria were grown in LB at 37.0 and harvested at a concentration of 10^8 cells/mL. To remove residual macromolecules and other growth medium constituents, cells were washed twice and then resuspended in an isotonic solution (0.9% NaCl, pH 5.7). This isotonic solution was used for E. coli and P. aeruginosa loss of viability studies.
Viability loss of P. aeruginosa in contact with chitosan/CA(0, 0.5, and 5.0%)/PEO nanofiber mats was determined using a previously described fluorescence assay.^33 Electrospun mats (20 mm×10 mm) were placed at the bottom of 35 mm×10 mm petri dishes (Becton, Dickinson & Co., Franklin Lakes, N.J.) to which the cells (10^7 cells/mL) resuspended in an isotonic solution were added and diluted by a factor of 2. The cells were incubated at 37° C. for various times (30, 90, and 180 min). […] Fluorescence images were acquired to detect the cells utilizing an epifluorescence microscope (Olympus) with a Chroma cube filter. […] Dead cells and the total number of cells were determined by direct cell counting. […] Throughout the Results and Discussion section, all statistical differences were determined using an unpaired t-test with values of p≦0.05 considered to be statistically significant.

[2] = system: Escherichia coli S20918; test: Viability loss of E. coli, modified ASTM E2149-01 shake flask method; assay type: cell-based; settings: 3 mM CA solution
Description: as §1
The viability loss of E. coli in contact with chitosan/CA(0, 0.5, and 5.0%)/PEO nanofiber mats was assayed according to a modified ASTM E2149-01 shake flask method.^30 In parallel to each experiment (i) a blank control (no nanofiber mat) and (ii) an MIC control of CA for E. coli (3 mM CA in solution) were employed.^19 Electrospun mats (10 mm×20 mm) were placed into culture tubes (16 mm×125 mm) along with 4 mL suspensions of E. coli or P. aeruginosa (5×10^6 cells/mL) in an isotonic solution (0.9% NaCl, pH 5.7). The suspensions were shaken at 200 rpm in an orbital shaker maintained at 37° C. At 30, 90, and 180 minutes, 100 μL were pipetted out from the tubes and serial dilutions were plated onto LB plates using the spread plate method.^30-32 After 24 hr incubation on agar plates, the number of viable bacteria was counted. The number of viable cells was multiplied by the dilution factor and expressed as the mean colony forming unit (CFU) per mL. The percent reduction of bacteria resulting from contact with the nanofiber mats was determined using Equation 1 where A represents the mean log10 density of bacteria for the flask containing the treated substrate after the specified contact time and B represents the untreated substrate after the specified contact time.

[3] = system: E. coli; settings: CA in solution; cited from earlier work

O=CC=Cc1ccccc1 [CA, cinnamaldehyde]
P. aeruginosa inactivation, statistical comparison ([1]; after 30 min): statistically equivalent | P. aeruginosa inactivation, statistical comparison ([1]; at 90 min): statistically equivalent level as the chitosan/CA(0.5 and 5.0%)/PEO nanofiber mats | E. coli inactivation compared with blank control ([2]; no nanofiber mat): statistically inactivated more E. coli than the blank control | antibacterial activity against E. coli compared with nanofiber mats ([2]; after 30 and 180 min): statistically lower level of antibacterial activity | antibacterial activity against E. coli compared with nanofiber mats ([2]; at 90 min): statistically equivalent to the chitosan/CA(0.5%)/PEO nanofiber mats | MIC [3]: 3000 µM (≈ 396 µg/mL)
